Laboratory results as given in publication PMC5902452, “In silico optimization of a guava antimicrobial peptide enables combinatorial exploration for peptide design” (Nature Communications, 2018).
Peptide text beside a SMILES is read from it.

Experiments:
[1] = tested on: Escherichia coli ATCC 25922; test: Antimicrobial activity, MIC by twofold serial dilution; assay type: cell-based; details: purified peptide; MH broth, 18 h, 37 °C, A630; average of three independent experiments in triplicate
Excerpt: (§2) Lysogeny Broth (LB) was used for cultures of Acinetobacter baumannii ATCC 19606, Enterococcus faecalis ATCC 29212, Escherichia coli ATCC 25922, Klebsiella pneumoniae ATCC 13883, Pseudomonas aeruginosa ATCC 27853, and S. aureus ATCC 25923. Brain Heart Infusion (BHI) broth was used for cultures of Listeria ivanovii Li 4pVS2 and Streptococcus pyogenes ATCC 19615. Yeast peptone dextrose (YPD) medium was used for Candida species (C. albicans ATCC 90028 and C. parapsilosis ATCC 22019). MH (Mueller Hinton) broth was used for suspend centrifuged culture of bacteria and yeasts in logarithmic phase to an A630 of 0.01 (~10^6 cfu mL^−1), except for S. pyogenes, L. ivanovii, and E. faecalis that were suspended in their respective growth medium. […] A microplate reader (UVM 340, Asys Hitech) was used to monitor the antimicrobial susceptibility by measuring the change in A630. […] Each experiment was performed in triplicate with positive (0.7% formaldehyde) and negative (without peptide) inhibition controls.

[2] = tested on: Pseudomonas aeruginosa ATCC 27853; assay type: cell-based; details: ATCC 27853, 18 h
Excerpt: as §2

[3] = tested on: Klebsiella pneumoniae ATCC 13883; assay type: cell-based; details: ATCC 13883, 18 h
Excerpt: as §2

[4] = tested on: Streptococcus pyogenes ATCC 19615; assay type: cell-based; details: ATCC 19615, 18 h
Excerpt: as §2

[5] = tested on: Enterococcus faecalis ATCC 29212; assay type: cell-based; details: ATCC 29212, 18 h
Excerpt: as §2

[6] = tested on: Candida albicans ATCC 90028; assay type: cell-based; details: ATCC 90028, 18 h
Excerpt: as §2

[7] = tested on: HEK-293 cells; test: Cytotoxicity, MTT-based microassay; assay type: cell-based, human; details: purified peptide, HEK-293, 72 h, 37 °C, 12.5–200 µM, mean of three independent experiments in triplicate, read-out: Active concentration (inhibitory concentration 50, IC50)
Procedure: HEK-293 cells were cultured in DMEM medium, and incubated at 37 °C in a humidified atmosphere of 5% CO2. Cell viability was quantified after peptide incubation using a methylthiazolyldiphenyl-tetrazolium bromide (MTT)-based microassay. […] Then, 10 µL of MTT (5 mg mL^−1 in PBS) was added to each well and the cells were further incubated for 4 h in the dark. The formazan crystals formed by mitochondrial reductases in intact cells are insoluble in aqueous solutions and precipitate. Formazan crystals were dissolved using a solubilization solution (40% dimethylformamide in 2% glacial acetic acid, 16% sodium dodecyl sulfate, pH 4.7) followed by 1 h incubation at 37 °C under shaking (150 rpm). Finally, the absorbance of the resuspended formazan was measured at 570 nm. Data were analyzed with GraphPad Prism® 5.0 software to determine the inhibitory concentration 50 (IC50), which corresponds to the peptide concentration producing 50% cell death. Results were expressed as the mean of three independent experiments performed in triplicate.

[8] = tested on: E. coli ATCC 25922; assay type: cell-based, Escherichia coli
Procedure: Exponentially growing bacteria in LB were harvested by centrifugation, washed three times in PBS and suspended in the same buffer to a final concentration of 10^7 cfu mL^−1. One hundred microliters of this bacterial suspension was incubated with a dose of peptide corresponding to twofold the MIC. Then, aliquots of 10 µL were withdrawn at different times, diluted in LB, and spread onto LB agar plates. The cfu were counted after overnight incubation at 37 °C.

[9] = tested on: E. coli ATCC 25922; test: Membrane polarization assay with DiSC3(5); assay type: cell-based, Escherichia coli; details: 12.5 µM (twofold above the MIC), 20 min, 37 °C
Procedure: When the cytoplasmic membrane is intact, the fluorescent probe DiSC3(5) accumulates into the cytoplasmic membrane and then aggregates, causing self-quenching of the fluorescence. In the presence of a membrane-depolarizing agent, DiSC3(5) is released into the medium, leading to an increase in fluorescence that can be monitored over time[59]. Briefly, exponentially growing bacteria were centrifuged (1000 × g, 10 min, 4 °C), washed with PBS, and resuspended in the same buffer to an A630 of 0.1; then 700 µL of bacteria were pre-incubated with 1 µM DiSC3(5) in the dark during 10 min at 37 °C, and then 100 µL of 1 mM KCl were added in order to equilibrate the cytoplasmic and external K^+ concentrations. […] Three independent experiments were performed and results correspond to a representative experiment with negative (PBS) and positive (melittin) controls.

[10] = tested on: P. aeruginosa ATCC 27853; test: SEM-FEG imaging; assay type: cell-based, Pseudomonas aeruginosa; details: 25 µM (MIC) and 50 µM, 1 h, 37 °C
Procedure: Bacteria in mid-logarithmic phase were collected by centrifugation ([…], 10 min, 4 °C), washed twice with PBS, and suspended in the same buffer at a density of 2 × 10^7 cfu mL^−1. […] As a negative control, cells were incubated in buffer without peptide. Microbial cells were then fixed with 2.5% glutaraldehyde, homogenized by gently inverting the tubes, and stored at 4 °C prior to SEM-FEG analysis. A Hitachi SU-70 Field Emission Gun Scanning Electron Microscope was used to record SEM-FEG images. The samples (gold plates where 20 µL of inoculum were deposited and dried under nitrogen) were fixed on an alumina SEM support with a carbon adhesive tape and were observed without metallization. In Lens Secondary electron detector (SE-Lower) was used to characterize our samples. The accelerating voltage was 1 kV and the working distance was around 15 mm. At least five to ten different locations were analyzed on each surface, leading to the observation of a minimum of 100 single cells.

[11] = tested on: E. coli 0157; test: Antibiofilm assay; assay type: cell-based, Escherichia coli
Procedure: (§1) Overnight cultures of microorganisms [E. coli 0157, methicillin-resistant S. aureus (MRSA), K. pneumoniae 1825971, or C. albicans clinical isolate obtained from a blood culture maintained at LACEN (Laboratório Central de Saúde do Distrito Federal, a Brazilian reference laboratory for clinical isolates in Brasília, Brazil)] grown in LB broth (BD Difco) were diluted 1 in 100 in LB and Todd-Hewitt broth (BD Difco) or BM2 minimal medium [62 mM potassium phosphate buffer, pH 7.0, 7 mM (NH4)2SO4, 2 mM MgSO4, 10 μM FeSO4, 0.5% glucose], and 100 μL per well was added into 96-well round-bottom microplates. Absorbance at 600 nm was used to assess the planktonic cell growth. Non-adherent planktonic cells were removed from microtiter wells and washed twice with deionized water. Adherent cells were stained with 0.1% crystal violet for 20 min. The microplate wells were washed twice with deionized water, air dried, and solubilized with 110 μL of 70% ethanol. […] Biofilm formation was assessed by measuring the absorbance at 600 nm using a microplate reader (Bio-Tek Instruments, Inc., USA). The microdilution method for cationic peptides was used to determine the MIC for planktonic cells. Three biological replicates were performed for each experiment involving eight technical replicates.

[12] = tested on: methicillin-resistant S. aureus (MRSA); test: Antibiofilm assay; assay type: cell-based, Staphylococcus aureus
Procedure: as §1

[13] = tested on: Listeria ivanovii Li4pVS2; details: purified peptide; BHI broth, 18 h, 37 °C, A630; average of three independent experiments in triplicate
Excerpt: as §2

[14] = tested on: human erythrocytes; test: Hemolytic assay; details: SPOT-synthesized crude peptides; human red blood cells in NaCl 0.85%, 1 h, 37 °C; hemoglobin release at 546 nm; highest concentration 200 μg mL−1; 100% of hemolysis was not observed
Procedure: Fresh human venous blood was collected from volunteers in Vacutainer collection tubes containing sodium heparin as an anticoagulant (BD Biosciences, Franklin Lakes, NJ). The blood was centrifuged applying 151 × g force (1500 rpm) and the serum was removed and the blood cells were replaced and washed three times with the same volume of sterile NaCl 0.85% solution. Concentrated red blood cells were diluted tenfold in NaCl 0.85% solution and then exposed at twofold dilutions of peptides for 1 h at 37 °C, at identical concentrations used for antimicrobial assays, in the ratio of 1:1 (v/v), achieving a final volume of 100 μL. The assay was carried out in 96-well polypropylene microtiter plates. The positive control wells contained 1% of Triton X-100, representing 100% cell lysis, and negative control wells contained sterile saline. Hemoglobin release was monitored chromogenically at 546 nm using a microplate reader.

CC[C@H](C)[C@H](NC(=O)[C@H](CCCNC(=N)N)NC(=O)[C@H](Cc1ccc(O)cc1)NC(=O)CNC(=O)[C@H](Cc1ccc(O)cc1)NC(=O)[C@H](CCCNC(=N)N)NC(=O)[C@H](CC(C)C)NC(=O)[C@H](C)NC(=O)[C@H](CCC(N)=O)NC(=O)[C@H](CCC(=O)O)NC(=O)[C@@H](NC(=O)[C@H](CCC(N)=O)NC(=O)[C@H](CCCNC(=N)N)NC(=O)[C@H](CCSC)NC(=O)[C@H](Cc1ccc(O)cc1)NC(=O)[C@H](CCC(N)=O)NC(=O)[C@@H](N)CCCNC(=N)N)[C@@H](C)CC)C(=O)N[C@@H](CO)C(=O)N[C@@H](CCCNC(=N)N)C(=O)N[C@@H](CCCNC(=N)N)C(N)=O [Guavanin 2] (H-RQYMRQIEQALRYGYRISRR-NH2)
Active concentration (MIC) [1]: 6.25 µM
Active concentration (MIC) [2]: 25 µM
Active concentration (MIC) [3]: 80 µM
Active concentration (MIC) [4]: 50 µM
Active concentration (MIC) [5]: >100 µM
Active concentration (MIC) [6]: >200 µM
IC50 [7]: > 200 µM
colony-forming units remaining (from 10^7) ([8]; 12.5 µM (twofold above the MIC), 120 min): ~ 10^5 colony-forming units
killing speed relative to [I^5, R^8] mastoparan ([8]; time–kill, E. coli): eightfold slower
DiSC3(5) fluorescence change (membrane potential) [9]: decrease in DiSC3(5) fluorescence
membrane effect seen in SEM-FEG images [10]: membrane damage (deformations/indentations)
antibiofilm activity [11]: only able to reduce C. albicans biofilms
antibiofilm activity [12]: only able to reduce C. albicans biofilms
Active concentration (MIC) [13]: 50 µM
Hemolysis [14]: > 200 µg/mL
